Each block holds one compound with its values, some of them ahead of it.
Test system: 439559-082-T-J2-PDC spheroids viability
Experiment: Anticancer human tumor 439559-082-T-J2-PDC patient-derived colon adenocarcinoma cell line growth inhibition [GQUAD]
Details: for IC50: curve of first compound; for viability, T/C: stronger effect = lower value
From the text: DNA G-quadruplex Stabilizer Agents in Combinations in Complex Spheroids
A high-throughput screen of multi-cell type tumor spheroids was designed to identify active combinations of DNA G-quadruplex stabilizer agents and targeted small molecules. Complex spheroids include a stromal component modeled by human endothelial cells (HUVEC) and fibroblasts modeled by human mesenchymal stem cells (MSCs). The concentration ranges selected for each drug and investigational agent were based upon clinically achievable concentrations if the clinical Cmax of the agent was known.
Compounds. The drugs and investigational agents: pidnarulex (CX-5461; NSC782164), APTO-253 (NSC789042), BRACO-19 (NSC847499), peposertib (NSC802822), ceralasertib (NSC780249), elimusertib (NSC800525), camonsertib (NSC841442), AZD-1390 (NSC803789), olaparib (NSC753686), talazoparib (NSC767125), ART-558 (NSC835418), sotorasib (NSC818433), MRTX-1133 (NSC836407), SN-38 (NSC673596), topotecan (NSC609699), etoposide (NSC141540), doxorubicin (NSC123127), gemcitabine (NSC613327), 5-fluorouracil (NSC19893), paclitaxel (NSC125973), vemurafenib (NSC761431), panobinostat (NSC761190), R-306465 (JNJ-16241199; NSC773264), adavosertib (NSC754352), TP-3654 (NSC805149), carboplatin (NSC241240), KSQ-4279 (NSC840948), and staurosporine (NSC755774) were obtained from the National Cancer Institute (NCI) Developmental Therapeutics Program Chemical Repository (34). The FDA-approved anticancer drug set is available from the NCI Developmental Therapeutics Program. […] The stock solutions were prepared in dimethyl sulfoxide (DMSO, Sigma-Aldrich, St. Louis, MO, cat. D2650) at 800-fold the tested concentration and stored at -70 degrees C prior to their use. All drugs and investigational agents were tested over a range starting from a high concentration at or near the clinical Cmax and decreasing in half-log increments. If the clinical Cmax for an agent had not been determined, the highest concentration tested was 10 microM.
2.3 Cell Culture. All cells were maintained in an incubator at 37 degrees C and 5% CO2 with 95% humidity. The PDC lines were cultured according to standard operating procedures established by the NCI PDMR. All PDCs were thawed and cultured in Matrigel-coated flasks prepared with a working solution of 1X Ham's F-12 nutrient mix, without supplementation (Invitrogen, cat. 11765054), 100 U/mL penicillin-streptomycin (Invitrogen, cat. 15140122), and 2.5% Matrigel (Corning Inc., cat. 354248) for the first three passages. The 857933-349-R-J2-PDC line was cultured in 6C/Colon 1B media, which includes advanced DMEM/F-12 (Thermo Fisher Scientific, cat. 12634028), 10 mM HEPES (Thermo Fisher Scientific, cat. 15630080), 1X GlutaMAX supplement (Thermo Fisher Scientific, cat. 35050061), 0.1 mg/mL primocin (InvivoGen, cat. ant-pm-2), 10% defined fetal bovine serum, heat inactivated (HyClone Laboratories Inc., cat. SH30070.03HI), 50% L-WRN conditioned media (ATCC, cat. CRL-3276), 1.25 mM N-Acetyl-L-cysteine (Sigma-Aldrich, cat. A9165), 10 mM nicotinamide (Sigma-Aldrich, cat. N0636), 1X B-27 supplement (Thermo Fisher Scientific, cat. 17504044), 1X N-2 supplement (Thermo Fisher Scientific, cat. 17502048), 10 microM Y-27632 dihydrochloride (Tocris Bioscience, cat. 1254), and 50 ng/mL human EGF recombinant protein (Thermo Fisher Scientific, cat. PHG0311). The 485176-168-R4-J1-PDC line was cultured in Panc media, which includes all 6C/Colon 1B media components plus 100 ng/mL human FGF-10 (Thermo Fisher Scientific, cat. 100-26), 500 nM SB-431542 (Selleckchem, cat. S1067), and gastrin (Tocris, cat. 3006).
[…]

[1] = second compound 0.0316 µM, first compound 0.0316 µM
[2] = second compound 0.0316 µM, first compound 0.1 µM
[3] = second compound 0.0316 µM, first compound 0.316 µM
[4] = second compound 0.0316 µM, first compound 1 µM
[5] = second compound 0.0316 µM, first compound 3.16 µM
[6] = second compound 0.0316 µM, first compound 10 µM
[7] = second compound 0.1 µM, first compound 0.0316 µM
[8] = second compound 0.1 µM, first compound 0.1 µM
[9] = second compound 0.1 µM, first compound 0.316 µM
[10] = second compound 0.1 µM, first compound 1 µM
[11] = second compound 0.1 µM, first compound 3.16 µM
[12] = second compound 0.1 µM, first compound 10 µM
[13] = second compound 0.316 µM, first compound 0.0316 µM
[14] = second compound 0.316 µM, first compound 0.1 µM
[15] = second compound 0.316 µM, first compound 0.316 µM
[16] = second compound 0.316 µM, first compound 1 µM
[17] = second compound 0.316 µM, first compound 3.16 µM
[18] = second compound 0.316 µM, first compound 10 µM
[19] = second compound 1 µM, first compound 0.0316 µM
[20] = second compound 1 µM, first compound 0.1 µM
[21] = second compound 1 µM, first compound 0.316 µM
[22] = second compound 1 µM, first compound 1 µM
[23] = second compound 1 µM, first compound 3.16 µM
[24] = second compound 1 µM, first compound 10 µM
[25] = second compound 3.16 µM, first compound 0.0316 µM
[26] = second compound 3.16 µM, first compound 0.1 µM
[27] = second compound 3.16 µM, first compound 0.316 µM
[28] = second compound 3.16 µM, first compound 1 µM
[29] = second compound 3.16 µM, first compound 3.16 µM
[30] = second compound 3.16 µM, first compound 10 µM
[31] = second compound 10 µM, first compound 0.0316 µM
[32] = second compound 10 µM, first compound 0.1 µM
[33] = second compound 10 µM, first compound 0.316 µM
[34] = second compound 10 µM, first compound 1 µM
[35] = second compound 10 µM, first compound 3.16 µM
[36] = second compound 10 µM, first compound 10 µM
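Also: spheroids exposed to the agents for 7 days before readout.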
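For viability, T/C in this document: percent of luminescence signal in DMSO vehicle wells taken as 100% viability.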

Compound: COc1ccc([C@@H](O)c2cc(-c3ncnc4cc(N5CCOCC5)ccc34)c(F)cc2Cl)nn1 + Cc1[nH]c2ccc(F)cc2c1-c1nc2c3cccnc3c3ncccc3c2[nH]1
IC50 (second compound 0.0316 µM): > 10 µM
IC50 (second compound 0.1 µM): > 10 µM
IC50 (second compound 0.316 µM): > 10 µM
IC50 (second compound 1 µM): > 10 µM
IC50 (second compound 3.16 µM): > 10 µM
IC50 (second compound 10 µM): > 10 µM
viability, T/C [1]: 97.1%
viability, T/C [2]: 98%
viability, T/C [3]: 87.8%
viability, T/C [4]: 98.1%
viability, T/C [5]: 85%
viability, T/C [6]: 95.5%
viability, T/C [7]: 111%
viability, T/C [8]: 99.5%
viability, T/C [9]: 89%
viability, T/C [10]: 93.3%
viability, T/C [11]: 98%
viability, T/C [12]: 88.5%
viability, T/C [13]: 106%
viability, T/C [14]: 93.2%
viability, T/C [15]: 92.1%
viability, T/C [16]: 86.9%
viability, T/C [17]: 83.7%
viability, T/C [18]: 75.9%
viability, T/C [19]: 99.9%
viability, T/C [20]: 101%
viability, T/C [21]: 90.5%
viability, T/C [22]: 92.6%
viability, T/C [23]: 85.8%
viability, T/C [24]: 75.6%
viability, T/C [25]: 73.1%
viability, T/C [26]: 85.1%
viability, T/C [27]: 83.2%
viability, T/C [28]: 69%
viability, T/C [29]: 69.3%
viability, T/C [30]: 77.4%
viability, T/C [31]: 84.9%
viability, T/C [32]: 93.9%
viability, T/C [33]: 83.7%
viability, T/C [34]: 82%
viability, T/C [35]: 74.4%
viability, T/C [36]: 80.8%

IC50 (second compound 0.0316 µM): 9.53 µM
IC50 (second compound 0.1 µM): > 10 µM
IC50 (second compound 0.316 µM): 6.48 µM
IC50 (second compound 1 µM): 3.09 µM
IC50 (second compound 3.16 µM): 1.91 µM
IC50 (second compound 10 µM): 0.665 µM
Compound: C#Cc1c(F)ccc2cc(O)cc(-c3ncc4c(N5CC6CCC(C5)N6)nc(OCC56CCCN5CC(F)C6)nc4c3F)c12 (centres undefined) + Cc1cnc(CNC(=O)c2c(=O)c3ccc(N4CCCN(C)CC4)nc3n3c2sc2ccccc23)cn1
viability, T/C [1]: 92.5%
viability, T/C [2]: 81.9%
viability, T/C [3]: 76%
viability, T/C [4]: 62.7%
viability, T/C [5]: 62.6%
viability, T/C [6]: 47.5%
viability, T/C [7]: 92.6%
viability, T/C [8]: 80.1%
viability, T/C [9]: 60.1%
viability, T/C [10]: 61.2%
viability, T/C [11]: 57.2%
viability, T/C [12]: 53%
viability, T/C [13]: 81.2%
viability, T/C [14]: 68.8%
viability, T/C [15]: 68.9%
viability, T/C [16]: 57.9%
viability, T/C [17]: 58.6%
viability, T/C [18]: 45.2%
viability, T/C [19]: 86.2%
viability, T/C [20]: 66.9%
viability, T/C [21]: 65.3%
viability, T/C [22]: 56.1%
viability, T/C [23]: 49.5%
viability, T/C [24]: 45.8%
viability, T/C [25]: 71.3%
viability, T/C [26]: 73.1%
viability, T/C [27]: 56.7%
viability, T/C [28]: 55.8%
viability, T/C [29]: 47.8%
viability, T/C [30]: 36.8%
viability, T/C [31]: 59.1%
viability, T/C [32]: 55.9%
viability, T/C [33]: 49.4%
viability, T/C [34]: 51.3%
viability, T/C [35]: 42.1%
viability, T/C [36]: 33.7%

Reference: PubChem BioAssay AID2060510 (Molecular Pharmacology Branch, DTP, NCI, 2025)
